Laboratory results as given in publication PMC6479946 (Molecules, 2019).
Marks after values point to notes of the source that are not given here.

Assay: Pharmacokinetic study in rats after oral HAR and MEM alone and in combination (plasma, UPLC-MS/MS, non-compartmental)
Details: rat plasma, n = 8, mean ± SD
Procedure: The analytes were separated on an ACQUITY UPLC BEH C18 column (2.1 mm × 50 mm, 1.7 μm, Waters, Milford, USA). […] The flow rate was 0.3 mL/min. The column and sample-tray temperature were kept at 40 °C and 4 °C, respectively. The injection volume was 5.0 μL using a partial loop with needle over fill mode.
The compound dependent parameters used for analysis were summarized in Supplementary materials Table S1.
A rapid and convenient precipitation method was used to prepare the plasma samples. A 100 μL aliquot of plasma sample was spiked with 100 μL of IS solution and 300 μL of methanol in a 1.5 mL centrifuge tube; subsequently, the mixtures were vortex-mixed for 30.0 s and then centrifuged at 1.5 × 10^4× g for 10 min at 4 °C. A 100 μL aliquot of supernatant was combined with 25.0 μL of 0.1% formic acid water in a clean centrifuge tube and then vortex-mixed for 30 s. A 5.0 μL aliquot of mixture was injected into the UPLC-MS/MS system for analysis.
Fifty-six pathogen-free male adult rats were randomly divided into seven groups with eight rats in each group for pharmacokinetic study. […] One group was intragastrically administered with MEM hydrochloride 5.0 mg/kg dissolved in ultrapure water, namely, MEM group. […] The blood samples were immediately centrifuged at 4.0 × 10^3× g at […] for 10 min, and 100 μL of the supernatant plasma was transferred into another new 1.5 mL centrifuge tube and stored at −20 °C until UPLC-MS/MS analysis.
All standard curves and quantitative data were processed by Agilent Mass Hunter Quantitative Analysis Workstation Software. […] All the pharmacokinetic parameters were processed using the non-compartmental pharmacokinetics data analysis software program PK solutions 2.0^TM (Summit Research Services, USA). […] The AUC(0-t) was obtained by the linear/logarithmic trapezoidal rule, and the area under the plasma concentration versus time curve from zero to infinity (AUC(0-∞)) was calculated by means of the trapezoidal rule with extrapolation to infinity with a terminal elimination rate constant. The Pearson correlation coefficient analysis was processed by IBM SPSS Statistics Version 21. A statistical analysis was performed using analysis of variance with α = 0.05 as the minimal level of significance.

[1] = HOL as metabolite after oral HAR 40.0 mg/kg + MEM 5.0 mg/kg (HAR-M + MEM)
[2] = HOL as metabolite after oral HAR 40.0 mg/kg alone (HAR-M)
[3] = HOL as metabolite after oral HAR 80.0 mg/kg + MEM 5.0 mg/kg (HAR-H + MEM)
[4] = HOL as metabolite after oral HAR 80.0 mg/kg alone (HAR-H)

## harmol [HOL]
[1]
  AUC(0-t) of HOL: 35.5 ± 15.3 ng·h/mL
  AUC(0-∞) of HOL: 43.1 ± 21.9 ng·h/mL
  Cmax of HOL: 18.0 ± 5.95 ng/mL
  Ka of HOL: 1.98 ± 1.72 h⁻¹
  Ke of HOL: 0.312 ± 0.271 h⁻¹
  MRT of HOL: 5.52 ± 2.55 h
  T1/2a of HOL: 2.78 ± 4.59 h
  T1/2e of HOL: 3.53 ± 2.19 h
  T1/2d of HOL: 2.05 ± 1.61 h
  Tmax of HOL: 0.229 ± 0.0589 h
[2]
  AUC(0-t) of HOL: 27.1 ± 10.8 ng·h/mL
  AUC(0-∞) of HOL: 29.6 ± 11.3 ng·h/mL
  Cmax of HOL: 10.4 ± 2.13 ng/mL
  Ka of HOL: 0.808 ± 1.28 h⁻¹
  Ke of HOL: 0.400 ± 0.133 h⁻¹
  MRT of HOL: 4.44 ± 1.78 h
  T1/2a of HOL: 2.22 ± 1.67 h
  T1/2e of HOL: 1.94 ± 0.712 h
  T1/2d of HOL: 1.89 ± 1.07 h
  Tmax of HOL: 0.198 ± 0.324 h
[3]
  AUC(0-t) of HOL: 158 ± 59.9 ^bbb ng*h/mL
  AUC(0-∞) of HOL: 327 ± 140 ^bbb ng*h/mL
  Cmax of HOL: 40.4 ± 10.9 ^bbb ng/mL
  Ka of HOL: 0.864 ± 1.00 h⁻¹
  Ke of HOL: 0.0899 ± 0.0912 ^b /h
  MRT of HOL: 23.5 ± 19.3 ^b h
  T1/2a of HOL: 2.15 ± 2.05 h
  T1/2e of HOL: 17.2 ± 14.7 ^b h
  T1/2d of HOL: 3.48 ± 4.35 h
  Tmax of HOL: 2.39 ± 3.52 h
[4]
  AUC(0-t) of HOL: 57.8 ± 19.3 ^aaa ng*h/mL
  AUC(0-∞) of HOL: 69.7 ± 23.1 ^aaa ng*h/mL
  Cmax of HOL: 32.4 ± 16.5 ^aa ng/mL
  Ka of HOL: 1.17 ± 1.96 h⁻¹
  Ke of HOL: 0.226 ± 0.0896 ^aa /h
  MRT of HOL: 6.04 ± 2.12 h
  T1/2a of HOL: 2.02 ± 1.52 h
  T1/2e of HOL: 3.57 ± 1.50 ^a h
  T1/2d of HOL: 2.02 ± 1.72 h
  Tmax of HOL: 0.271 ± 0.159 h
